Experiments:
[1] = system: central eye artery; experiment: blood circulation in the central eye artery under model ischemia-reperfusion; assay type: in vivo; settings: rats, intravenous, doses of 3, 5, 10, 20 and 100 mg/kg
[2] = system: NMDA-receptors; experiment: blocking/unblocking of NMDA-receptors; settings: stated property, no test described
[3] = system: ischemia-reperfusion eye model
[4] = rats, parenteral, within 96 hours of ischemia, doses of 3, 5, 10, 20 and 100 mg/kg

OC(COCCC12CC3CC(CC(C3)C1)C2)CN1CCOCC1 (stereo not shown) [1-adamantylethyloxy-3-morpholino-2-propanol]
blood circulation in the central eye artery [1]: stimulates | blocking/unblocking NMDA-receptors [2]: fast blocking/unblocking | disturbed indicators of acid-alkali balance, oxidative stress and energy metabolism in the retina [3, 4]: promoted the normalization | number of apoptotic and necrotic cells in eye posterior part [3, 4]: reduces | perivascular edema in the retina and optic nerve [3, 4]: attenuated | retinal manifestations of endothelial dysfunction and nitrosating stress [3, 4]: promoted the reduction | neuroprotective properties under ischemic-hypoxic injury of retina and optic nerve ([3]; summary of the studies, composition concentration range 3-100 mg/ml): expressed neuroprotective properties
